From publication PMC9276586 (Cellular and Molecular Life Sciences: CMLS, 2022)
Converted amounts (≈) assume the structure as drawn. Read-outs that look alike come from different tables or passages of the source. Peptide text beside a SMILES is read from it.

What was measured:
E. coli CFT073 = type: cell-based, Escherichia coli
Protocol: (§1) The following uropathogenic bacterial species were used for the in vitro experiments, E. coli CFT073; E. coli ESBL-producing (CCUG 55197); K. pneumoniae (ATCC 25955); K. pneumoniae multidrug resistant (MDR) (CCUG 58547); and P. aeruginosa (ATCC 27853). Clinical isolates were obtained from the Department of Clinical Microbiology, Karolinska University Hospital, Solna, Sweden. Bacteria were cultured aerobically overnight on blood agar plates at 37 °C. For each bacterial species, 20 clinical isolates were included. For further assessment of biofilm formation, the E. coli isolate #12 from a child with pyelonephritis was chosen. The isolate expresses both curli and cellulose, as well as type 1 fimbriae and produces biofilm as measured on microtiter plates One-step knockout of bcsA and csgBA were carried out using the methods as described previously. The following mutants were used: WE1 bcsA::Cm (deficient in cellulose production), WE11 csgBA::Cm (deficient in curli production), and WE16 csgBA bscA::Cm (deficient in both cellulose and curli production). E. coli CFT073 was used for all experiments where nothing else is stated.
(§2) MIC of CD4-PP was evaluated against the type strains and the 20 clinical bacterial isolates using a two-step micro-dilution assay adapted for testing AMPs. The concentrations of CD4-PP were prepared double strength with two-fold serial dilutions ranging from 50 to 0.78 µM in 50 µL of 10 mM Tris buffer in a U-bottom 96-well plate (Corning Incorporated).
(§3) Bacteria were grown to mid-log phase before diluting to a final concentration of 1 × 10^6 CFU/mL in 10 mM Tris buffer using a Densichek Plus (BioMérieux). To each well, 50 µL suspension was added and incubated at 37 °C for 1 h and the final concentrations of peptide tested were from 25 to 0.39 µM. […] The MIC was read spectrophotometrically at 595 nm. MIC was defined as the lowest concentration of CD4-PP which inhibits bacterial growth. The effects of salt ions on the antibacterial activities of CD4-PP were assessed against E. coli (ATCC 25922) and P. aeruginosa (ATCC 27853) type strains. […]

[1] = system: E. coli ESBL strain (CCUG 55971); type: cell-based, Escherichia coli; conditions: 10 mM Tris buffer, bacteria 1 × 10^6 CFU/mL, 1 h 37 °C, then TSB 16–18 h, read at 595 nm
Protocol: as §1, §2, §3

[2] = system: MDR K. pneumoniae (CCUG 58547); type: cell-based, Klebsiella pneumoniae; conditions: 10 mM Tris buffer, bacteria 1 × 10^6 CFU/mL, 1 h 37 °C, then TSB 16–18 h, read at 595 nm
Protocol: as §1, with “The following mutants were used: WE1 bcsA::Cm (deficient in cellulose production), WE11 csgBA::Cm (deficient in curli production), and WE16 csgBA bscA::Cm (deficient in both cellulose and curli production). E. coli CFT073 was used for all experiments where nothing else is stated.” left out
MIC of CD4-PP was evaluated against the type strains and the 20 clinical bacterial isolates using a two-step micro-dilution assay adapted for testing AMPs. […]
Bacteria were grown to mid-log phase before diluting to a final concentration of 1 × 10^6 CFU/mL in 10 mM Tris buffer using a Densichek Plus (BioMérieux). […] The MIC was read spectrophotometrically at 595 nm. […] The effects of salt ions on the antibacterial activities of CD4-PP were assessed against E. coli (ATCC 25922) and P. aeruginosa (ATCC 27853) type strains. […]

[3] = system: Klebsiella pneumoniae (ATCC 25955); type: cell-based; conditions: 10 mM Tris buffer, bacteria 1 × 10^6 CFU/mL, 1 h 37 °C, then TSB 16–18 h, read at 595 nm
Protocol: as §1, §2
(§4) Bacteria were grown to mid-log phase before diluting to a final concentration of 1 × 10^6 CFU/mL in 10 mM Tris buffer using a Densichek Plus (BioMérieux). To each well, 50 µL suspension was added and incubated at 37 °C for 1 h and the final concentrations of peptide tested were from 25 to 0.39 µM. […] The MIC was read spectrophotometrically at 595 nm. MIC was defined as the lowest concentration of CD4-PP which inhibits bacterial growth. The effects of salt ions on the antibacterial activities of CD4-PP were assessed against E. coli (ATCC 25922) and P. aeruginosa (ATCC 27853) type strains. The following salts were used: sodium chloride (NaCl), ammonium chloride (NH4Cl), calcium chloride (CaCl2), magnesium chloride (MgCl2) and ferric chloride (FeCl3). All salts were purchased from Merck.

aureolysin [4] = biological target: aureolysin (Staphylococcus aureus, UniProt P81177); test: Proteolytic stability against aureolysin; type: in vitro ADME; conditions: bacterial protease aureolysin; percentage of intact peptide at time points by LC–MS
Protocol: A major limitation of AMPs as potential drug candidates is due to their inherent proteolytic instability, and endogenous AMPs are readily degraded by both host- and pathogen-proteases. […] Therefore, the stability of CD4-PP was tested against this enzyme. The percentage of the intact peptide at different time points was monitored using LC–MS, and compared to LL-37 as a control. […] In contrast, CD4-PP is stable for up to 6 h (Supplementary Fig. S2).
[picture] Supplementary Figure S2.

[5] = system: Pseudomonas aeruginosa (ATCC 27853); type: cell-based
Protocol: as §1, §2, §4

aureolysin [6] = test: bacterial protease aureolysin; conditions: up to 6 h
[7] = stated in SEM method, bacteria at 10^8 CFU/mL in 10 mM Tris buffer

Chain of aureolysin (Staphylococcus aureus, UniProt P81177) (P81177 209-509): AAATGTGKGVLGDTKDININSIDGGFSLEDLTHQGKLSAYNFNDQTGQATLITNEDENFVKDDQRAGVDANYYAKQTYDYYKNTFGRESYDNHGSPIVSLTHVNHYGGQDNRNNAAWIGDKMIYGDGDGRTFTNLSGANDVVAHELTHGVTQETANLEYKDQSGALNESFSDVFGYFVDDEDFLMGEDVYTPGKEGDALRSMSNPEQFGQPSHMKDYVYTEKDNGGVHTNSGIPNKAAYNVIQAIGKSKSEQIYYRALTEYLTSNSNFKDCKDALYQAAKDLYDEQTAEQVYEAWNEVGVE

`CC[C@H](C)[C@@H]1NC(=O)[C@H](CCCNC(=N)N)NC(=O)[C@H](CCCCN)NC(=O)[C@H](C(C)C)NC(=O)[C@H]([C@@H](C)CC)NC(=O)[C@H](CCCNC(=N)N)NC(=O)[C@H](CCCCN)NC(=O)CNC(=O)CNC(=O)[C@@H]2CCCN2C(=O)[C@H](CS)NC(=O)[C@H](CCCNC(=N)N)NC(=O)[C@H](CC(C)C)NC(=O)[C@H](Cc2ccccc2)NC(=O)[C@H](C)NC(=O)[C@H](CCCCN)NC(=O)[C@H]([C@@H](C)CC)NC(=O)[C@H](CCCNC(=N)N)NC(=O)[C@H](CCCCN)NC(=O)[C@H](C(C)C)NC(=O)[C@H]([C@@H](C)CC)NC(=O)[C@H](CCCNC(=N)N)NC(=O)[C@H](CCCCN)NC(=O)CNC(=O)CNC(=O)[C@@H]2CCCN2C(=O)CNC(=O)[C@H](CCCNC(=N)N)NC(=O)[C@H](CC(C)C)NC(=O)[C@H](Cc2ccccc2)NC(=O)[C@H](C)NC(=O)[C@H](CCCCN)NC1=O` [CD4-PP] (cyclo(AFLRCPGGKRIVKRIKAFLRGPGGKRIVKRIK)) gave an MIC (E. coli CFT073; CFT073, 1 h) of 0.78 µM (≈ 2.81 µg/mL), an MIC [1] of 0.78 µM (≈ 2.81 µg/mL) and an MIC [2] of 1.56 µM (≈ 5.62 µg/mL). For the same compound, the MIC [3] was 1.56 µM (≈ 5.62 µg/mL) and the “time for which the peptide is stable with aureolysin” value (aureolysin [4]) was “up to 6 h”.
For `CC[C@H](C)[C@H](NC(=O)[C@H](CCCCN)NC(=O)[C@H](CCC(=O)O)NC(=O)[C@H](CCCCN)NC(=O)[C@H](CO)NC(=O)[C@H](CCCCN)NC(=O)[C@H](CCCNC(=N)N)NC(=O)[C@H](Cc1ccccc1)NC(=O)[C@H](Cc1ccccc1)NC(=O)[C@H](CC(=O)O)NC(=O)CNC(=O)[C@H](CC(C)C)NC(=O)[C@@H](N)CC(C)C)C(=O)NCC(=O)N[C@@H](CCCCN)C(=O)N[C@@H](CCC(=O)O)C(=O)N[C@@H](Cc1ccccc1)C(=O)N[C@@H](CCCCN)C(=O)N[C@@H](CCCNC(=N)N)C(=O)N[C@H](C(=O)N[C@H](C(=O)N[C@@H](CCC(N)=O)C(=O)N[C@@H](CCCNC(=N)N)C(=O)N[C@H](C(=O)N[C@@H](CCCCN)C(=O)N[C@@H](CC(=O)O)C(=O)N[C@@H](Cc1ccccc1)C(=O)N[C@@H](CC(C)C)C(=O)N[C@@H](CCCNC(=N)N)C(=O)N[C@@H](CC(N)=O)C(=O)N[C@@H](CC(C)C)C(=O)N[C@H](C(=O)N1CCC[C@H]1C(=O)N[C@@H](CCCNC(=N)N)C(=O)N[C@H](C(=O)N[C@@H](CCC(=O)O)C(=O)N[C@@H](CO)C(=O)O)[C@@H](C)O)C(C)C)[C@@H](C)CC)C(C)C)[C@@H](C)CC` [LL-37], the “MIC (reference concentration used for SEM)” value (E. coli CFT073; [7]) was 15.62 µM, the MIC ([5]; CaCl2 2.5 mM) was >10 µM and the MIC ([5]; FeCl3 4 µM) was 2.5 µM (≈ 11.2 µg/mL). The MIC ([5]; MgCl2 1 mM) was 5 µM (≈ 22.5 µg/mL), the MIC ([5]; NH4Cl 6 µM) was 1.25 µM (≈ 5.62 µg/mL) and the MIC ([5]; NaCl 150mM) was 5 µM (≈ 22.5 µg/mL). For the same compound, the MIC ([5]; salt series: Tris-buffer 10mM, no added salt) was 1.25 µM, the “MIC (reference concentration used for SEM)” value [5, 7] was 15.62 µM and the “degradation by aureolysin (in words)” value (aureolysin [4]) was “rapidly degraded within minutes”.
With CPGGKRIVKRIKAFLRGPGGKRIVKRIKAFLR the not cleaved (aureolysin [6]) was “stable for up to 6 h”.
With LLGDFFRKSKEKIGKEFKRIVQRIKDFLRNLVPRTES the cleaved bond (aureolysin [6]) was “L31-V32”.
